Measured values published in PMC9117128, “Phage anti-CBASS and anti-Pycsar nucleases subvert bacterial immunity” (Nature, 2022).

T1: PycTIR (Burkholderia cepacia, UniProt A0A0J5WTU0)
T1 sequence (A0A0J5WTU0 1-303): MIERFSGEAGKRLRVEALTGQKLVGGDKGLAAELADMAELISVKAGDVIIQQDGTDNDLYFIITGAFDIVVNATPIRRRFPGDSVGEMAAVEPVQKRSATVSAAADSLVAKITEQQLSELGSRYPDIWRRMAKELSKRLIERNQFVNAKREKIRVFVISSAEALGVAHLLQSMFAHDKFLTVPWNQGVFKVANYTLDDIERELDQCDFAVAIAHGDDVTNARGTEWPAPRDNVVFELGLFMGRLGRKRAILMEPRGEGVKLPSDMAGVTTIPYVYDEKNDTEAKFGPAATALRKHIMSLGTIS


Key:
YhfI = molecular target: T2, YhfI (Bacillus subtilis, UniProt O07607); experiment: HPLC cleavage assay; assay type: biochemical; settings: Mg2+, Mn2+, pH 7.5, 37 °C
T2 construct: recombinant, homodimer
T2 sequence (O07607 whole entry): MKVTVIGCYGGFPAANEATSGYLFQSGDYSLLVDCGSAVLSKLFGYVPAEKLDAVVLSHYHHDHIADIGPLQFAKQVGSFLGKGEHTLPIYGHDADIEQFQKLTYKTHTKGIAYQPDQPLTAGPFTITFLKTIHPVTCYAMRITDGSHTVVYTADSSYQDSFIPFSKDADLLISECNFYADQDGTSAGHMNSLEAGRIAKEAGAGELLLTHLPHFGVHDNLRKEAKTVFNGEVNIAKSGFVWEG

PycTIR = molecular target: T1, PycTIR; experiment: fluorescent NADase activation assay; assay type: biochemical; settings: 500 µM ε-NAD, pH 7.5, room temperature
[1] = molecular target: the molecule itself; experiment: crystal structure; hanging-drop crystals grown at 18 °C from purified protein (10 mg/ml, 20 mM HEPES-KOH pH 7.5, 80 mM KCl, 1 mM TCEP); homodimer seen in the crystal structures

| Molecule | stoichiometry N [1] | also measured |
| --- | --- | --- |
| Nc1nc2c(ncn2[C@@H]2O[C@@H]3COP(=O)(O)O[C@H]3[C@H]2O)c(=O)[nH]1 [cGMP] | – | HPLC cleavage assay (YhfI): exhibited a strong preference for cAMP/cGMP over cCMP/cUMP cleavage |
| O=c1ccn([C@@H]2O[C@@H]3COP(=O)(O)O[C@H]3[C@H]2O)c(=O)[nH]1 [cUMP] | – | fluorescent NADase activation assay (PycTIR; activator): cUMP-dependent activation of the Pycsar NADase effector PycTIR |
| NC(=O)c1ccc[n+]([C@@H]2O[C@H](COP(=O)(O)OP(=O)(O)OC[C@H]3O[C@@H](n4cnc5c4ncn4ccnc54)[C@H](O)[C@@H]3O)[C@@H](O)[C@H]2O)c1 [ε-NAD] | – | fluorescent NADase activation assay (PycTIR; cUMP as activator): Release of fluorescent substrate from an NAD^+ analogue incubated with the Pycsar effector PycTIR |
| Paenibacillus J14 Apyc1 (enzyme, selenomethionine-labelled, Apyc1 homologue (MBL-fold class II phosphodiesterase) of Paenibacillus J14, GenBank WP_028539944.1; Crystallised with a hydrolysis-resistant phosphorothioate analogue of cAMP; also called P. J14 Apyc1; Paenibacillus Apyc1; source: E. coli BL21(DE3) RIL, selenomethionine-labelled, purified (Ni-NTA, Superdex 75 SEC); not shown: 6×His-SUMO2 or 6×His-MBP-SUMO2, N-terminal, cleaved) ALRLQMLGTGGAFAKKYFNNNALLYAGDFTLLIDCGITAPLALHTIGKSVEEIDAVLITHIHGDHVGGLEELAFRRKFGSGRKPILYIAENLVEPLWENTLKGGLSQDGVIHSLNDVFDVRLLKESEPAQLAPELKVELIRTPHIPGKPSYSLYINDEIFYSADMTFEPELLMRLVRERGCRRIFHEVQLTGKGEVHTTLQELLSLPTEIQSQILLKHYSDDMESFRGATGNMDFLRQHEVYTL | 2 | – |
| Apyc1 from the phage Bsp38 (enzyme, Anti-Pycsar protein Apyc1 (MBL-fold class II phosphodiesterase) of phage Bsp38; The SUMO2 tag was cleaved with SENP2; also called Bsp38 Apyc1; source: E. coli BL21(DE3) RIL, purified (Ni-NTA, Superdex 75 SEC); not shown: 6×His-SUMO2 or 6×His-MBP-SUMO2, N-terminal, cleaved) MLHTTQIRMVGTGSAFSKKFYNNSALVTFTNGYNLLIDCGHSVPKGLHDADIPLESIDGILITHTHADHIGGLEEVALYNKFVLGGRKIDLLVPNTLVESLWENSLKGGLRYSDTYDDLSLSDYFTVRSLKTFTSGAARTQLEENIAIKLYPTFHVSHMASYAVGLEDRGEDKVFYSSDTIFDEYLIDYALTYSWVFHDCQFFTGGVHASLDELLNYIPEEDQDRVFLMHYGDNMEDFFTKTGRMRFALQGRTYIL | 2 | – |
| Paenibacillus xerothermodurans Apyc1 (enzyme, Apyc1 homologue (MBL-fold class II phosphodiesterase) of Paenibacillus xerothermodurans; also called P. xerothermodurans Apyc1; Paenibacillus Apyc1; source: E. coli BL21(DE3) RIL, purified (Ni-NTA, Superdex 75 SEC); not shown: 6×His-SUMO2 or 6×His-MBP-SUMO2, N-terminal, cleaved) SLQIQMIGTGSAFAKKFYNNNALVKCNGFQLLIDCGVTAPRALHELGVPITGIDGILITHIHADHVGGIEEFAFRLKYKYGMTIKLFVPAALVNPLWDHSLRGGLENKAEGLEQLADYFDVVALEEAVVHEIHPGLTVELVRSQHIAGKASYSLLLNNLLFYSSDARFNYAQLVELSTSGRCKYILHDCQLAEPAAVHATLNELLTLPEAVQEMIMLMHYDDEMEQFIGKSGKMSFMQQHKTYSFTEAT | 2 | – |
